Laboratory results published in patent EP0167710A1, “Use of benomyl for the manufacture of a medicament against ichthyophthyriasis” (Eduro World Investments Inc., priority 1984, dated 1986).

How the values were obtained:
[1] = system: Ichthiophthyriasis auslösenden Parasiten; assay: Treatment of Ichthyophthyriasis-infected fish in aquaria (Beispiel 2); type: in vivo; conditions: after 7 Behandlungstagen; 18 Neonsalmler per tank; conditions of Beispiel 1, repeat dose equal to the initial dose
Protocol: (§1) Unter gleichen Bedingungen wurden in drei Fischbehältern A, B und C (40 Liter) je 16 Sumatrabarben ausgesetzt. Die Wassertemperatur betrug 25 + 1°C. Nach eintägiger Haltung wurden die Fische in Kontakt mit Ichthiophthyriasis auslösenden Parasiten gebracht. Nach visuell sichtbarer Infektion wurden zugesetzt: • Im Aquarium A: Reines Wasser • Im Aquarium B: 1-(N-Butylcarbamoyl)-2-(methoxycarbonyl-amino)-benzimidazol (als pulverförmiges Gemisch. Konzentration an Wirkstoff 0,2 mg/ml) • Im Aquarium C: Malachitgrün (Wirkstoffkonzentrat-0,03 mg/ml)
(§2) Die Zugabe wurde mit der halben Dosierung nach 3 bis 5 Tagen wiederholt.
Unter den Bedingungen des Beispiels 1 wurden jeweils 18 Neonsalmler behandelt. Die Nachdosierung erfolgte jedoch in Höhe der Anfangsdosierung.

[2] = system: Ichthiophthyriasis auslösenden Parasiten; assay: Treatment of Ichthyophthyriasis-infected fish in aquaria (Beispiel 1); type: in vivo; conditions: 6 days after start of treatment, 16 Sumatrabarben per 40 Liter tank, Benomyl 0,2 mg/ml, Malachitgrün 0,03 mg/ml, repeated at half dose after 3 bis 5 Tagen; for Ausfälle: 25 + 1°C
Protocol: as §1, §2

Row | SMILES | Ausfälle [1] | Ausfälle [2] [Tieren pro Becken] | Schuppenbild [2]
1 | CCCCNC(=O)n1c(NC(=O)OC)nc2ccccc21 [Benomyl] | Keine Ausfälle | 2 | normalisiert
2 | CN(C)c1ccc(C(=C2C=CC(=[N+](C)C)C=C2)c2ccccc2)cc1 [Malachitgrün] | Ein Ausfall | 2 | normalisiert
